Reference: paper PMC8310135 (Viruses, 2021)
Structures can show the parent of a compound that is named as a salt. Where two headings read alike, the source gives them in different places.

Assays:
[1] = test system: Huh7 cells
[2] = test system: rLUJV/ZsG; assay: microbe, parasite or virus in culture; type: cell-based, Lujo virus; settings: for activity at 0.05 µM / activity at 0.5 µM / activity at 5 µM: Huh-7, read-out: Relative ZsG (%) Mean
[3] = in vitro; settings: human; for CC50: CC50 (50% cell cytotoxicity concentration)
[4] = Mammarenavirus lujoense, Huh-7, read-out: EC50 (concentration inhibiting ZsG expression by 50%)
[5] = Mammarenavirus lujoense, 500 nM
[6] = Mammarenavirus lujoense, 5000 nM
[7] = read-out: EC50 (concentration inhibiting ZsG expression by 50%)

SMILES	Cell Viability (%) Mean ([1]; 50 nM) [%]	Cell Viability (%) Mean ([1]; 500 nM) [%]	Cell Viability (%) Mean ([1]; 5000 nM) [%]	Relative ZsG (%) Mean ([2]; 50 nM) [%]	Relative ZsG (%) Mean ([2]; 500 nM) [%]	Relative ZsG (%) Mean ([2]; 5000 nM) [%]	CC50 ([1]; human) [µM]	SI (selectivity index, CC50 divided by EC50) [2]	EC50 [2, 4] [µM]	activity at 0.05 µM ([2]; Mammarenavirus lujoense, 50 nM) [%]	activity at 0.5 µM [2, 5] [%]	activity at 5 µM [2, 6] [%]	EC50 [2, 7] [µM]	viability at 0.05 µM [3] [%]	viability at 0.5 µM [3] [%]	viability at 5 µM [3] [%]	CC50 [3] [µM]
C[C@@]1(O)[C@H](O)[C@@H](CO)O[C@H]1n1ccc2c(N)ncnc21 [7-DMA]	98	103	113	96	95	92	–	–	–	–	–	–	–	–	–	–	–
NCC(=O)Nc1ccc(-n2nc(C(F)(F)F)cc2-c2ccc3c(ccc4ccccc43)c2)cc1 [AR-12]	–	–	–	–	–	–	5.52 ± 1.67	4.5	1.2	74	54	2	1.23 ± 0.444	129	115	1	5.5 ± 1.7
COc1cc2ncnc(Nc3ccc(F)c(Cl)c3)c2cc1OCCCN1CCOCC1 [Gefitinib]	–	–	–	–	–	–	–	–	–	77	71	48	–	128	121	101	–
O=c1c(-c2ccc(O)cc2)coc2cc(O)cc(O)c12 [Genistein]	–	–	–	–	–	–	–	–	–	83	68	92	–	123	111	106	–
Cc1ccc(NC(=O)c2ccc(CN3CCN(C)CC3)cc2)cc1Nc1nccc(-c2cccnc2)n1 [Gleevec]	–	–	–	–	–	–	–	–	–	95	113	56	–	101	96	96	–
CCOC(=O)C1=C(C)NC(C)=C(C(=O)OCC)C1c1ccccc1/C=C/C(=O)OC(C)(C)C [Lacidipine]	–	–	–	–	–	–	–	–	–	90	90	47	–	138	129	98	–
CN(C)C(=O)C(CCN1CCC(O)(c2ccc(Cl)cc2)CC1)(c1ccccc1)c1ccccc1 [Loperamide HCL]	–	–	–	–	–	–	–	3.3	3.67 ± 0.99	104	81	1	3.67 ± 0.986	99	104	85	12.3 ± 3.57
Cc1c(F)cc(C(=O)NC2CC2)cc1-c1ccc(C(=O)NCC(C)(C)C)cn1 [Losmapimod]	–	–	–	–	–	–	–	–	–	60	70	63	–	113	115	114	–
Clc1ccc(COC(Cn2ccnc2)c2ccc(Cl)cc2Cl)c(Cl)c1 (stereo not shown) [Miconazole nitrate]	–	–	–	–	–	–	–	–	–	65	78	47	–	119	120	67	–
CCCCCCCCCCCCCCCCn1cc[n+](Cc2ccccc2)c1C.[I-] [NH125]	104	63	1	60	28	2	–	–	–	–	–	–	–	–	–	–	–
C#C[C@@]1(O)[C@H](O)[C@@H](CO)O[C@H]1n1ccc2c(N)ncnc21 [NITD008]	99	96	97	122	110	136	–	–	–	–	–	–	–	–	–	–	–
OC(CNCC(O)C1CCc2cc(F)ccc2O1)C1CCc2cc(F)ccc2O1 (stereo not shown) [Nebivolol]	–	–	–	–	–	–	–	–	–	76	58	18	–	110	108	76	–
C[C@@]1(F)[C@H](O)[C@@H](CO)O[C@H]1n1ccc(N)nc1=O [PSI-6130]	100	96	99	149	90	114	–	–	–	–	–	–	–	–	–	–	–
C[C@@]1(F)[C@H](O)[C@@H](CO)O[C@H]1n1ccc(=O)[nH]c1=O [PSI-6206]	103	96	104	141	87	128	–	–	–	–	–	–	–	–	–	–	–
CC(C)OC(=O)[C@H](C)N[P@@](=O)(OC[C@H]1O[C@@H](n2ccc(=O)[nH]c2=O)[C@](C)(F)[C@@H]1O)Oc1ccccc1 [PSI-7976]	94	99	107	96	80	124	–	–	–	–	–	–	–	–	–	–	–
CC(C)OC(=O)[C@H](C)N[P@](=O)(OC[C@H]1O[C@@H](n2ccc(=O)[nH]c2=O)[C@](C)(F)[C@@H]1O)Oc1ccccc1 [PSI-7977]	–	–	–	–	–	–	–	–	–	119	95	118	–	101	97	104	–

SMILES	Cell Viability (%) Mean ([1]; 50 nM) [%]	Cell Viability (%) Mean ([1]; 500 nM) [%]	Cell Viability (%) Mean ([1]; 5000 nM) [%]	Relative ZsG (%) Mean ([2]; 50 nM) [%]	Relative ZsG (%) Mean ([2]; 500 nM) [%]	Relative ZsG (%) Mean ([2]; 5000 nM) [%]	CC50 ([1]; human) [µM]	SI (selectivity index, CC50 divided by EC50) [2]	EC50 [2, 4] [µM]	activity at 0.05 µM ([2]; Mammarenavirus lujoense, 50 nM) [%]	activity at 0.5 µM [2, 5] [%]	activity at 5 µM [2, 6] [%]	EC50 [2, 7] [µM]	viability at 0.05 µM [3] [%]	viability at 0.5 µM [3] [%]	viability at 5 µM [3] [%]	CC50 [3] [µM]
Cl.Fc1ccc([C@@H]2CCNC[C@H]2COc2ccc3c(c2)OCO3)cc1 [Paroxetine HCl]	138	145	110	93	83	48	–	–	–	–	–	–	–	–	–	–	–
Cc1ccc(Nc2nccc(N(C)c3ccc4c(C)n(C)nc4c3)n2)cc1S(N)(=O)=O.Cl [Pazopanib HCl]	134	116	54	77	59	24	–	–	–	–	–	–	–	–	–	–	–
[N-]=[N+]=N[C@]1(CO)O[C@@H](n2ccc(N)nc2=O)[C@@H](O)[C@@H]1O [R09187]	99	98	102	116	122	88	–	–	–	–	–	–	–	–	–	–	–
[N-]=[N+]=N[C@]1(CO)O[C@@H](n2ccc(N)nc2=O)[C@H](O)[C@@H]1O [R-1479]	104	101	96	118	100	103	–	–	–	–	–	–	–	–	–	–	–
CC(C)C(=O)OC[C@H]1O[C@@H](n2ccc(N)nc2=O)[C@](C)(F)[C@@H]1OC(=O)C(C)C [R-7128]	100	98	103	133	80	126	–	–	–	–	–	–	–	–	–	–	–
COc1ccc(-n2cnc3cc(NCc4ccc(C(C)C)cc4)ccc32)cc1 [ST-193]	105	98	101	107	102	91	–	–	–	–	–	–	–	–	–	–	–
CN[C@H]1CC[C@@H](c2ccc(Cl)c(Cl)c2)c2ccccc21 [Sertraline]	–	–	–	–	–	–	–	–	–	80	69	35	–	122	128	107	–
Cc1cn([C@H]2C=C[C@@H](CO)O2)c(=O)[nH]c1=O [Stavudine]	–	–	–	–	–	–	–	–	–	125	104	96	–	101	98	103	–
Clc1ccc(CSC(Cn2ccnc2)c2ccc(Cl)cc2Cl)cc1 (stereo not shown) [Sulconazole nitrate]	–	–	–	–	–	–	–	–	–	86	66	42	–	132	131	52	–
Nc1cccc(-c2cc3c(Oc4cccc(O)c4)ncnc3[nH]2)c1 [TWS119]	135	124	36	74	74	13	–	–	–	–	–	–	–	–	–	–	–
C[C@H](Cn1cnc2c(N)ncnc21)OCP(=O)(O)O [Tenofivir]	101	100	100	114	138	96	–	–	–	–	–	–	–	–	–	–	–
COc1ccc2cc1Oc1ccc(cc1)C[C@H]1c3cc(c(OC)cc3CCN1C)Oc1c(OC)c(OC)cc3c1[C@H](C2)N(C)CC3 [Tetrandrine]	–	–	–	–	–	–	–	–	–	95	75	2	–	115	95	1	–
CN(C)CCOc1ccc(/C(=C(/CCCl)c2ccccc2)c2ccccc2)cc1 [Toremifene citrate]	–	–	–	–	–	–	–	2.6	4.22 ± 0.78	86	88	9	4.22 ± 0.778	122	128	93	10.9 ± 3.14
N#Cc1cn([C@@H]2O[C@H](CO)[C@@H](O)[C@H]2O)c2ncnc(N)c12 [Toyocamycin]	–	–	–	–	–	–	–	–	–	69	12	7	–	97	64	23	–
COc1cc2ncnc(Nc3cccc(Cl)c3)c2cc1OC [Tyrphostin AG1478]	–	–	–	–	–	–	–	–	–	80	73	87	–	120	101	111	–
Cc1cn([C@H]2C[C@H](N=[N+]=[N-])[C@@H](CO)O2)c(=O)[nH]c1=O [Zidovudine]	–	–	–	–	–	–	–	–	–	99	88	92	–	97	105	93	–
